Data published in publication PMC9532478, “A Novel CTLA-4 affinity peptide for cancer immunotherapy by increasing the integrin αvβ3 targeting” (Discover. Oncology, 2022).
Ends that are not written are not given here.

How the values were obtained:
hCTLA-4 protein [1] = target: T1, hCTLA-4 protein (Homo sapiens, UniProt P16410); test: MST affinity of CTLA-4 binding peptides to hCTLA-4 protein; conditions: Monolith NT.115, Red-NHS647 dye-labelled protein, peptides from 400 μmol/L, 16 twofold dilutions, room temperature 5 min
T1 sequence (P16410 36-223): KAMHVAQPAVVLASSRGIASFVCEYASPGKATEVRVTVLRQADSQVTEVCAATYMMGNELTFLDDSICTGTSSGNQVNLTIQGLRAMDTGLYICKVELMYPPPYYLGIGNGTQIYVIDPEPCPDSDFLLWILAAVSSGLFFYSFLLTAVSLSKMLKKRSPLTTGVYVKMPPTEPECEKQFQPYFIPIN
Protocol: The CTLA-4 binding peptides were first diluted to 400 μmol/L with MST buffer, and twofold serial dilutions were carried out to obtain 16 concentration gradients subsequently. Equal Red-NHS647 dye-labelled protein and peptide volumes were incubated at room temperature for 5 min, the mixture was loaded onto standard capillaries (NanoTemper Technologies GmhH), and immediately placed in an MST instrument for detection. The dissociation constant (Kd) was determined using the NanoTemper analysis software MO. Affinity Analysis v2.2.4.

CT26 tumour = test: CT26 tumour-bearing mice, peritumoral LC4; assay type: in vivo
Protocol: BALB/c mice were subcutaneously injected with 2 × 10^5 syngeneic CT26 cells to establish colorectal cancer xenograft model. The mice were divided into control group, LC4 (1 mg / kg) group and LC4 (4 mg / kg) group when the tumor grew to 40–80 mm.^3, peritumoral administration for 14 days. Statistical graph of A tumor volumes and B body weight of LC4 (1 mg / kg) group, LC4 (4 mg / kg) group and control group. Data are expressed as the mean ± SD (n = 5) and statistical significance between groups was determined by Student’s t test: *p < 0.05, ***p < 0.001
Fig. 6 The LC4 activation on T cells was determined in vivo. […] Data are expressed as the mean ± SD (n = 5) and statistical significance between groups was determined by Student’s t test: *p < 0.05, **p < 0.01, ***p < 0.001, ****p < 0.0001; ns = no significance TEXT PRINTED IN THE PICTURE: (A) LC4: Tumor CD3^+CD8^+(%): 6.86 (1mg/kg); Tumor CD3^+CD8^+(%): 19.3 (4mg/kg) | (B) LC4: Spleen CD8^+IFN-γ^+(%): 42.9 (1mg/kg); Spleen CD8^+IFN-γ^+(%): 42.5 (4mg/kg) | (C) LC4: Spleen CD4^+IFN-γ^+(%): 15.6 (1mg/kg); Spleen CD4^+IFN-γ^+(%): 14.2 (4mg/kg) | (D) LC4: DLN CD8^+IFN-γ^+(%): 45.8 (1mg/kg); DLN CD8^+IFN-γ^+(%): 56 (4mg/kg) | (E) LC4: DLN CD4^+IFN-γ^+(%): 2.31 (1mg/kg); DLN CD4^+IFN-γ^+(%): 2.83 (4mg/kg) DOUBTS OF THE COPYIST ABOUT THIS PICTURE: The gate numbers in the flow cytometry plots are printed without a measure or unit. […]

hCTLA-4 protein [2] = target: T2, hCTLA-4 protein (human, UniProt P16410 36-161); test: MST; Monolith NT.115; peptides first diluted to 400 μmol/L in MST buffer, 16 twofold dilutions; equal volumes of Red-NHS647 dye-labelled protein and peptide, room temperature 5 min, standard capillaries; conditions: both partners purified
T2 construct: human CTLA-4 protein, soluble recombinant protein; The MST methods speak of a 'Red-NHS647 dye-labelled protein' without naming it; also called human CTLA-4 protein
T2 sequence (looked up): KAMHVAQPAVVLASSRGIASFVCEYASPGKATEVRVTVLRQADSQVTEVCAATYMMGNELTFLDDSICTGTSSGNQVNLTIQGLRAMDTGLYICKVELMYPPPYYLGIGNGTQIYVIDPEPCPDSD

ASANDNRLRYTY [LC6] showed a Kd (hCTLA-4 protein [1]) of over 200 µM.

HHLRIPYALDQT [LC2] showed a Kd (hCTLA-4 protein [1]) of over 200 µM.

RWKDTAYALTNN [LC1] was tested, and the Kd (hCTLA-4 protein [1]) was over 200 µM.

SHRWQVWSRDRA [LC5] showed a Kd (hCTLA-4 protein [1]) of over 200 µM.

For WGHSHFSHWKGR [LC4], the “effect on weight of mice (in words)” value (CT26 tumour; 1 mg/kg/day or 4 mg/kg/day, peritumoral, 14 days, n = 5) was “no significant effect on the weight of mice” and the “pathological changes in heart, liver, lung, kidney (H&E staining, in words)” value (CT26 tumour; mouse, in vivo) was “No obvious pathological changes”.

B1: LC8 (peptide)
peptide: RHHSSNPRDTAP
notes: 12-mer selected from the Ph.D.-12 phage display peptide library on hCTLA-4; source: synthetic peptide (solid phase Fmoc synthesis, RP-HPLC)
Work on B1 yielded a Kd (hCTLA-4 protein [2]) of 8.82 ± 0.69 µM.

B2: LC4 (peptide)
peptide: WGHSHFSHWKGR
notes: 12-mer selected from the Ph.D.-12 phage display peptide library on hCTLA-4; also called LC4 peptide; source: synthetic peptide (solid phase Fmoc synthesis, RP-HPLC)
With B2 the Kd (hCTLA-4 protein [2]) was 6.86 ± 2.63 µM.

B3: LC3 (peptide)
peptide: SWHWHTHVRHQM
notes: as for B1
Work on B3 yielded a Kd (hCTLA-4 protein [2]) of 0.04 ± 0.01 µM.

B4: LC7 (peptide)
peptide: LDRPSSLAHLAS
notes: as for B1
In the case of B4, the Kd (hCTLA-4 protein [2]) is reported as 2.14 ± 0.69 µM.
